Measurements reported in publication PMC11156913, “New sulfonamide-based glycosides incorporated 1,2,3-triazole as cytotoxic agents through VEGFR-2 and carbonic anhydrase inhibitory activity” (Scientific Reports, 2024).
Like-named read-outs stand apart in the source and are kept apart here.

Experiments:
[1] = test system: colorectal HCT-116 cancer cell line; test: In vitro cytotoxic activity (MTT assay), HCT-116; format: cell-based, human; conditions: for inhibition at 100 µM / IC50: Homo sapiens; for inhibition at 100 µM: read-out: % inhibition ± SD HCT-116; for IC50: HCT-116 cells, MTT, read-out: IC50 (mean ± SD) HCT-116
Source text: (§1) The supplemental file contained extra details.

[2] = test system: liver HepG-2 cancer cell line; test: In vitro cytotoxic activity (MTT assay), HepG-2; conditions: for IC50 / inhibition at 100 µM: Homo sapiens; for IC50: HepG2, read-out: IC50 (mean ± SD) HepG-2; for inhibition at 100 µM: HepG2, 48 h, read-out: % inhibition ± SD HepG-2
Source text: as §1

[3] = test system: breast MCF-7 cancer cell line; test: In vitro cytotoxic activity (MTT assay), MCF-7; format: cell-based, human; conditions: for inhibition at 100 µM / IC50: Homo sapiens; for inhibition at 100 µM: read-out: % inhibition ± SD MCF-7; for IC50: MCF-7 cells, MTT, read-out: IC50 (mean ± SD) MCF-7
Source text: as §1

[4] = test system: lung A-549 cancer cell line; test: In vitro cytotoxic activity (MTT assay), A-549; conditions: for inhibition at 100 µM / IC50: Homo sapiens; for inhibition at 100 µM: A549, 48 h, read-out: % inhibition ± SD A-549; for IC50: A549, read-out: IC50 (mean ± SD) A-549
Description: Exponentially, cells were placed in 10^4 cells/ well for 24 h, and then add fresh medium which containing different concentration of the tested sample. Serial two-fold dilution of the tested sample were added using a multichannel pipette. […] Rinse the wells using water until no stain. After that, add 30% glacial acetic acid to all wells with shaking plates on Microplate reader (TECAN, Inc.) to measure the absorbance, using a test wavelength of 490 nm. Besides, compare the treated samples with the control cell.

hCA IX = biological target: T1, hCA IX (Homo sapiens, UniProt Q16790); test: Carbonic anhydrase inhibition, stopped-flow CO2 hydration, hCA IX; format: biochemical; conditions: read-out: IC50 (mean ± SD) Carbonic anhydrase isoforms hCA IX
T1 construct: made in house
Description: (§2) There was further information in the supplemental file.
(§3) An applied photophysics stopped-flow instrument was used for assaying the CA-catalyzed CO2 hydration activity. […] The CO2 concentrations ranged from 1.7 to 17 mM for the determination of the kinetic parameters and inhibition constants. For each inhibitor, at least six traces of the initial 5–10% of the reaction were used for determining the initial rate. The uncatalyzed rates were determined in the same manner and subtracted from the total observed rates. Stock solutions of inhibitor (0.1 mM) were prepared in distilled-deionized water, and dilutions up to 0.01 nM were done thereafter with distilled-deionized water. Inhibitor and enzyme solutions were preincubated together for 15 min at room temperature before assay in order to allow for the formation of the E-I complex. The inhibition constants were obtained by nonlinear least-squares methods using PRISM 3, and the Cheng –Prusoff equation, and represent the mean from at least three different determinations. All CA isoforms were recombinant ones obtained in-house.

hCA XII = biological target: T2, hCA XII (Homo sapiens, UniProt O43570); test: Carbonic anhydrase inhibition, stopped-flow CO2 hydration, hCA XII; format: biochemical; conditions: read-out: IC50 (mean ± SD) Carbonic anhydrase isoforms hCA XII
T2 construct: made in house
Description: as §2, §3

[5] = test system: retinal pigment epithelial normal RPE-1 cell line; test: Cytotoxic activity (MTT assay) against normal cell line RPE-1; format: cell-based; conditions: Homo sapiens, normal RPE-1 cells, read-out: IC50 (mean ± SD) RPE-1
Source text: Furthermore, the MTT assay was utilized to estimate the cytotoxic activity of the extremely potent derivatives 4, 7 and 9 against the normal cell line RPE-1, with the aim of examining their safety profiles (Table 1). […] They could therefore be thought of as safe cytotoxic agents.
as §1

VEGFR-2 = VEGFR-2 (Homo sapiens, UniProt P35968); test: In vitro inhibitory assessment against VEGFR-2 (ELISA, MCF-7 cell homogenates); format: cell-based; conditions: read-out: IC50 (mean ± SD) VEGFR-2
Description: as §2
The cells were harvested and the homogenates were prepared in saline using a tight pestle homogenizer until complete cell disruption. The kit uses a double-antibody sandwich enzyme-linked immunosorbent assay (ELISA) to determine the level of human VEGFR-2 in samples. A monoclonal antibody for VEGFR-2 was pre-coated onto 96-well plates. The test samples are added to the wells and a biotinylated detection polyclonal antibody from goat specific for VEGFR-2 was added subsequently followed by washing with PBS buffer. Avidin-Biotin-Peroxidase complex was added and the unbound conjugates were washed away with PBS buffer. HRP substrate TMB was used to visualize HRP enzymatic reaction. TMB was catalyzed by HRP to produce a blue color product that changed into yellow after adding acidic stop solution. The density of yellow color is proportional to the human VEGFR-2 amount of the sample captured in the plate. The chroma of color and the concentration of the human VEGFR-2 of the samples were positively correlated and the optical density was determined at 450 nm. The level of human VEGFR-2 in samples was calculated (pg/ml) as duplicate determinations from the standard curve. Percent inhibition was calculated in comparison to control untreated cells.

Chain of VEGFR-2 (P35968 20-1356): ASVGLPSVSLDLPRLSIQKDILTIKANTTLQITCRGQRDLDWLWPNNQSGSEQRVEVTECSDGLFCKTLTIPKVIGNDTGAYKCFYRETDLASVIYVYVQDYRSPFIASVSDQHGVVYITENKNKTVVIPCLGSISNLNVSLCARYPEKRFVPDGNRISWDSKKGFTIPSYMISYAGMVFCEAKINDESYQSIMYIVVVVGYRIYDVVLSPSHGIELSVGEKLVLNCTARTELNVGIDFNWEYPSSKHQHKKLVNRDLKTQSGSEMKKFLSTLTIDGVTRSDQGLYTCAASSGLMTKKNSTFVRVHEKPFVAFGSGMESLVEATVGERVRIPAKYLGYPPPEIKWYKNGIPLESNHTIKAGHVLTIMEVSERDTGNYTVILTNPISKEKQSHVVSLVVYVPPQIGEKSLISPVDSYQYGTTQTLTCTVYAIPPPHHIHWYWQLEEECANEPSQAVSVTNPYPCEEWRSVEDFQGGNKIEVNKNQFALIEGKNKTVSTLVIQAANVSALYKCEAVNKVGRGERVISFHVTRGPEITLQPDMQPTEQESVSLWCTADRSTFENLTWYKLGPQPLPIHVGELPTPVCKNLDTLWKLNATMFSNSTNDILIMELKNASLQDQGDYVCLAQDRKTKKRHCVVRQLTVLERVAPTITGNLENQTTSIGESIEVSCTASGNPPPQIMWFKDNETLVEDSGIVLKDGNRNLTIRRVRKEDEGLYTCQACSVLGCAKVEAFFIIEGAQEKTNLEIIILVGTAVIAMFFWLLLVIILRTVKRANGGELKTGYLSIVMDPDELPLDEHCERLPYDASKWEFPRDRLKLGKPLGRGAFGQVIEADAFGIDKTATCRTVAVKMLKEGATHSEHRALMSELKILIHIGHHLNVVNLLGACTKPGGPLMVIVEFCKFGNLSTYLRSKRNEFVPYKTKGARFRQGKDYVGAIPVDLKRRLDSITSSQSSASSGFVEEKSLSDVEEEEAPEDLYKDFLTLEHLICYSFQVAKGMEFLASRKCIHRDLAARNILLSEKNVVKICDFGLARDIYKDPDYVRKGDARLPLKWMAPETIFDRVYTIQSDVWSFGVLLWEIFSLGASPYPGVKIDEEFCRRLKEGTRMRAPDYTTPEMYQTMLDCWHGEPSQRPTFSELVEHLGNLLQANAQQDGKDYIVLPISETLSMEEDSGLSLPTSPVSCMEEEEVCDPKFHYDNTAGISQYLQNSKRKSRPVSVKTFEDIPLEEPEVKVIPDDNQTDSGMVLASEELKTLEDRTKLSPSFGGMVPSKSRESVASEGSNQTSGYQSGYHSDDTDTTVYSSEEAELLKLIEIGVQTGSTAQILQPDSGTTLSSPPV
T2 sequence (O43570 25-354): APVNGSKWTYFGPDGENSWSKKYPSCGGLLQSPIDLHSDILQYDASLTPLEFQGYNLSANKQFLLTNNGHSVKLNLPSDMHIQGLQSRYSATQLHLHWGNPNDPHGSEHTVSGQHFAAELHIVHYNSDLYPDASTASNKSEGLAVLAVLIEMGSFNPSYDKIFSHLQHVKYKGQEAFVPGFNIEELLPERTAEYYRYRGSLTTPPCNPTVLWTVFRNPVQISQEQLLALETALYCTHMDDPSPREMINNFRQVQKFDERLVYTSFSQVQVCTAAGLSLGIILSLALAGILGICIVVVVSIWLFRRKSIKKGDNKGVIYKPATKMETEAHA

Compound	melting point [°C]	percentage cytotoxicity on HepG-2 ([2]; 12.5 µM) [%]	percentage cytotoxicity on HepG-2 ([2]; 25 µM) [%]	percentage cytotoxicity on HepG-2 ([2]; 50 µM) [%]	percentage cytotoxicity on HepG-2 ([2]; 100 µM) [%]	IC50 [2] [µM]	inhibition at 100 µM [4] [%]	inhibition at 100 µM ([1]; HCT-116, 100 µM, 48 h) [%]	inhibition at 100 µM ([3]; MCF7, 100 µM, 48 h) [%]	percentage cytotoxicity on MCF-7 ([3]; 12.5 µM) [%]	percentage cytotoxicity on MCF-7 ([3]; 25 µM) [%]	percentage cytotoxicity on MCF-7 ([3]; 50 µM) [%]	percentage cytotoxicity on MCF-7 ([3]; 100 µM) [%]	IC50 ([3]; MCF7) [µM]	further results
CCCCNS(=O)(=O)c1ccc(-n2cc(CO[C@@H]3OC[C@@H](O)[C@H](O)[C@H]3O)nn2)cc1 [Compound 12, N-butyl-4-(4-([β-D-Xylopyranosyl]oxymethyl)-1H-1,2,3-triazol-1-yl)benzenesulfonamide]	150 to 152	33.95±0.33	44.70±1.13	55.95±0.44	62.86±1.19	36.44 ± 0.12	17.8 ± 0.95	–	–	–	–	–	–	–	inhibition at 100 µM ([1]; HCT-116, 48 h): 0%; inhibition at 100 µM ([3]; MCF7, 48 h): 41.4 ± 0.91%
CCN(CC)CCNC(=O)c1c(C)[nH]c(/C=C2\C(=O)Nc3ccc(F)cc32)c1C [Sunitinib, reference compound]	–	–	–	–	–	–	–	–	–	–	–	–	–	–	IC50 [4]: 10.1 ± 0.5 µM
CC(=O)OC[C@H]1O[C@@H](OCc2cn(-c3ccc(S(=O)(=O)NC4CCCCC4)cc3)nn2)[C@H](OC(C)=O)[C@@H](OC(C)=O)[C@H]1OC(C)=O [Compound 7, N-cyclohexyl-4-(4-([2,3,4,6-tetra-O-acetyl-β-D-galactopyranosyl]oxymethyl)-1H-1,2,3-triazol-1-yl)benzenesulfonamide]	–	84.09±0.85	85.07±0.05	85.58±0.88	87.60±1.73	10.5 ± 0.13	94.1 ± 0.51	75.7 ± 0.96	98.89 ± 0.19	30.37±3.66	55.90±1.44	88.77±2.70	98.89±0.19	20.3 ± 0.66	IC50 (hCA IX): 66 nM; IC50 (hCA XII): 7.6 nM; IC50 [5]: 82.58 ± 0.52 µM; percentage cytotoxicity on HCT-116 ([1]; 12.5 µM): 32.50±1.25%; percentage cytotoxicity on HCT-116 ([1]; 25 µM): 48.80±0.95%; percentage cytotoxicity on HCT-116 ([1]; 50 µM): 50.70±0.70%; percentage cytotoxicity on HCT-116 ([1]; 100 µM): 75.70±0.96%; IC50 [1]: 32 ± 0.42 µM; IC50 (VEGFR-2): 1330 ± 100 nM; percentage cytotoxicity on A-549 ([4]; 12.5 µM): 12.60±0.82%; percentage cytotoxicity on A-549 ([4]; 25 µM): 29.31±0.02%; percentage cytotoxicity on A-549 ([4]; 50 µM): 60.23±1.47%; percentage cytotoxicity on A-549 ([4]; 100 µM): 94.10±0.51%; IC50 [4]: 20.4 ± 0.28 µM
CCCCNS(=O)(=O)c1ccc(-n2cc(CO[C@@H]3O[C@H](COC(C)=O)[C@H](OC(C)=O)[C@H](OC(C)=O)[C@H]3OC(C)=O)nn2)cc1 [Compound 6, N-butyl-4-(4-([2,3,4,6-tetra-O-acetyl-β-D-galactopyranosyl]oxymethyl)-1H-1,2,3-triazol-1-yl)benzenesulfonamide]	–	–	–	–	–	–	32.53 ± 0.15	0	37.5 ± 0.52	–	–	–	–	–	inhibition at 100 µM [2]: 8.93 ± 0.74%
CCCCNS(=O)(=O)c1ccc(-n2cc(CO[C@@H]3OC[C@@H](OC(C)=O)[C@H](OC(C)=O)[C@H]3OC(C)=O)nn2)cc1 [Compound 8, N-butyl-4-(4-([2,3,4-tri-O-acetyl-β-D-xylopyranosyl]oxymethyl)-1H-1,2,3-triazol-1-yl)benzenesulfonamide]	–	23.15±0.43	32.80±2.12	50.73±1.45	69.17±0.21	47 ± 0.51	58.1 ± 0.56	41.05 ± 0.18	66 ± 0.69	29.56±1.66	36.13±2.06	49.80±0.41	66.04±0.69	46.49 ± 0.42	–
COc1cccc2c1C(=O)c1c(O)c3c(c(O)c1C2=O)C[C@@](O)(C(=O)CO)C[C@@H]3O[C@H]1C[C@H](N)[C@H](O)[C@H](C)O1 [Doxorubicin, reference compound]	–	–	–	–	–	13.8 ± 0.45	100 ± 0.2	100 ± 0.25	100 ± 0.08	–	–	–	–	17.4 ± 0.46	–

Now from value to molecule, other results behind:

melting point [°C]	Compound	percentage cytotoxicity on HepG-2 ([2]; 12.5 µM) [%]	percentage cytotoxicity on HepG-2 ([2]; 25 µM) [%]	percentage cytotoxicity on HepG-2 ([2]; 50 µM) [%]	percentage cytotoxicity on HepG-2 ([2]; 100 µM) [%]	IC50 [2] [µM]	inhibition at 100 µM [4] [%]	inhibition at 100 µM ([1]; HCT-116, 100 µM, 48 h) [%]	inhibition at 100 µM ([3]; MCF7, 100 µM, 48 h) [%]	percentage cytotoxicity on MCF-7 ([3]; 12.5 µM) [%]	percentage cytotoxicity on MCF-7 ([3]; 25 µM) [%]	percentage cytotoxicity on MCF-7 ([3]; 50 µM) [%]	percentage cytotoxicity on MCF-7 ([3]; 100 µM) [%]	IC50 ([3]; MCF7) [µM]	further results
47 to 49	CCCCNS(=O)(=O)c1ccc(N=[N+]=[N-])cc1 [Compound 3, 4-Azido-N-butylbenzenesulfonamide]	3.76±5.32	19.08±1.88	49.40±1.91	71.40±0.91	57.6 ± 12.2	20.47 ± 0.15	16.7 ± 0.6	51.97 ± 0.29	–	–	–	–	–	–
160 to 162	O=S(=O)(NC1CCCCC1)c1ccc(-n2cc(CO[C@@H]3OC[C@@H](O)[C@H](O)[C@H]3O)nn2)cc1 [Compound 13, N-cyclohexyl-4-(4-([β-D-Xylopyranosyl]oxymethyl)-1H-1,2,3-triazol-1-yl)benzenesulfonamide]	43.30±0.66	38.80±0.40	56.20±1.29	75.10±0.12	30.01 ± 0.06	54.6 ± 0.97	70.1 ± 1.05	71.43 ± 0.03	34.87±5.91	48.07±4.31	54.73±1.88	71.43±2.03	30.83 ± 0.2	percentage cytotoxicity on HCT-116 ([1]; 12.5 µM): 11.00±0.65%; percentage cytotoxicity on HCT-116 ([1]; 25 µM): 28.51±0.69%; percentage cytotoxicity on HCT-116 ([1]; 50 µM): 47.00±0.79%; percentage cytotoxicity on HCT-116 ([1]; 100 µM): 70.10±1.05%; IC50 [1]: 53.1 ± 0.69 µM
100 to 102	CCCCNS(=O)(=O)c1ccc(-n2cc(CO[C@@H]3O[C@H](CO)[C@H](O)[C@H](O)[C@H]3O)nn2)cc1 [Compound 10, N-butyl-4-(4-([β-D-Galactopyranosyl]oxymethyl)-1H-1,2,3-triazol-1-yl)benzenesulfonamide]	–	–	–	–	–	32 ± 0.84	8.91 ± 2.7	25.4 ± 0.91	–	–	–	–	–	inhibition at 100 µM [2]: 35.9 ± 0.42%
118 to 120	O=S(=O)(NC1CCCCC1)c1ccc(-n2cc(CO[C@@H]3O[C@H](CO)[C@H](O)[C@H](O)[C@H]3O)nn2)cc1 [Compound 11, N-cyclohexyl-4-(4-([β-D-galactopyranosyl]oxymethyl)-1H-1,2,3-triazol-1-yl)benzenesulfonamide]	44.80±0.50	57.70±0.87	62.70±0.36	73.85±1.06	16.9 ± 0.09	30.1 ± 0.62	39 ± 0.96	20.8 ± 0.79	–	–	–	–	–	–
